Measurements from patent US11051515B2, “3-acyl-benzamides and their use as herbicides” (Bayer Aktiengesellschaft, priority 2017, dated 2021).

Legend:
ALOMY [1] = experiment: Pre-emergence action against ALOMY; type: in vivo, Alopecurus myosuroides; conditions: dosage 320 g/ha; pre-emergence; scored visually after 3 weeks vs untreated controls; 100% = plants have died, 0% = like control plants
How it was run: (§1)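 Seeds sown in sandy loam in wood-fiber pots and covered with soil. Greenhouse growth; visual damage scored after 3 weeks versus untreated controls (100% = dead, 0% = like control).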

AVEFA [2] = experiment: Pre-emergence action against AVEFA; type: in vivo, Avena fatua; conditions: dosage 320 g/ha, scored visually after 3 weeks vs untreated controls
How it was run: as §1

CYPES [3] = experiment: Pre-emergence action against CYPES; type: in vivo, Cyperus esculentus; conditions: pre-emergence, dosage 320 g/ha, scored visually after 3 weeks vs untreated controls
How it was run: as §1

ECHCG [4] = experiment: Pre-emergence action against ECHCG; type: in vivo, Echinochloa crus-galli; conditions: pre-emergence, dosage 320 g/ha, scored visually after 3 weeks vs untreated controls
How it was run: as §1

LOLRI [5] = experiment: Pre-emergence action against LOLRI; type: in vivo, Lolium rigidum; conditions: dosage 320 g/ha, scored visually after 3 weeks vs untreated controls
How it was run: as §1

SETVI [6] = experiment: Pre-emergence action against SETVI; type: in vivo, Setaria viridis; conditions: pre-emergence, dosage 320 g/ha, scored visually after 3 weeks vs untreated controls
How it was run: as §1

ABUTH [7] = experiment: Pre-emergence action against ABUTH; type: in vivo, Abutilon theophrasti; conditions: pre-emergence, dosage 320 g/ha, scored visually after 3 weeks vs untreated controls
How it was run: as §1

AMARE [8] = experiment: Pre-emergence action against AMARE; type: in vivo, Amaranthus retroflexus; conditions: pre-emergence, dosage 320 g/ha, scored visually after 3 weeks vs untreated controls
How it was run: as §1

MATIN [9] = experiment: Pre-emergence action against MATIN; type: in vivo, Matricaria inodora; conditions: Dosage 320 g/ha, pre-emergence
How it was run: as §1

PHBPU [10] = experiment: Pre-emergence action against PHBPU; type: in vivo, Pharbitis purpurea; conditions: Dosage 320 g/ha, pre-emergence
How it was run: as §1

POLCO = experiment: Pre-emergence action against POLCO; type: in vivo, Polygonum convolvulus; conditions: Dosage 320 g/ha, pre-emergence
How it was run: as §1

STEME [11] = experiment: Pre-emergence action against STEME; type: in vivo, Stellaria media; conditions: Dosage 320 g/ha, pre-emergence
How it was run: as §1

VIOTR [12] = experiment: Pre-emergence action against VIOTR; type: in vivo, Viola tricolor; conditions: Dosage 320 g/ha, pre-emergence
How it was run: as §1

VERPE [13] = experiment: Pre-emergence action against VERPE; type: in vivo, Veronica persica; conditions: Dosage 320 g/ha, pre-emergence
How it was run: as §1

ALOMY [14] = experiment: Post-emergence action against ALOMY; type: in vivo, Alopecurus myosuroides; conditions: Dosage 80 g/ha, post-emergence
How it was run: (§2)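 Weeds grown in sandy loam in greenhouse, treated at one-leaf stage (2–3 weeks after sowing) with WP or EC formulations sprayed as aqueous suspension/emulsion at 600 to […] water with 0.2% wetting agent. Visual rating after about 3 weeks versus untreated controls, as % herbicidal action (100% = plants dead, 0% = like control).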

ECHCG [15] = experiment: Post-emergence action against ECHCG; type: in vivo, Echinochloa crus-galli; conditions: post-emergence, dosage 80 g/ha, visual assessment about 3 weeks after treatment vs untreated controls
How it was run: as §2

LOLRI [16] = experiment: Post-emergence action against LOLRI; type: in vivo, Lolium rigidum; conditions: dosage 80 g/ha, visual assessment about 3 weeks after treatment vs untreated controls
Description: Seeds of monocotyledonous and dicotyledonous weed and crop plants are laid out in sandy loam soil in wood-fiber pots, covered with soil and cultivated in a greenhouse under good growth conditions. 2 to 3 weeks after sowing, the test plants are treated at the one-leaf stage. The compounds of the invention, formulated in the form of wettable powders (WP) or as emulsion concentrates (EC), are then sprayed onto the green parts of the plants in the form of an aqueous suspension or emulsion at a water application rate equating to […], with addition of 0.2% wetting agent. After the test plants have been left to stand in the greenhouse under optimal growth conditions for about 3 weeks, the action of the preparations is assessed visually in comparison to untreated controls (herbicidal action in percent (%): 100% activity=the plants have died, 0% activity=like control plants). […] At the same time, inventive compounds leave Gramineae crops such as barley, wheat, rye, millet/Sorghum, corn or rice virtually undamaged when applied post-emergence, even at high active ingredient dosages. In addition, some substances are also harmless to dicotyledonous crops such as soya, cotton, oilseed rape, sugar beet or potatoes. Some of the compounds according to the invention have high selectivity and are therefore suitable for controlling unwanted vegetation in agricultural crops by the post-emergence method. The data of Tables B18 to B34 below illustrate, in an exemplary manner, the […] herbicidal action of the compounds according to the invention, the herbicidal activity being stated in percent.

SETVI [17] = experiment: Post-emergence action against SETVI; type: in vivo, Setaria viridis; conditions: post-emergence, dosage 80 g/ha, visual assessment about 3 weeks after treatment vs untreated controls
How it was run: as §2

ABUTH [18] = experiment: Post-emergence action against ABUTH; type: in vivo, Abutilon theophrasti; conditions: post-emergence, dosage 80 g/ha, visual assessment about 3 weeks after treatment vs untreated controls
How it was run: as §2

AMARE [19] = experiment: Post-emergence action against AMARE; type: in vivo, Amaranthus retroflexus; conditions: post-emergence, dosage 80 g/ha, visual assessment about 3 weeks after treatment vs untreated controls
How it was run: as §2

MATIN [20] = experiment: Post-emergence action against MATIN; type: in vivo, Matricaria inodora; conditions: post-emergence, dosage 80 g/ha, visual assessment about 3 weeks after treatment vs untreated controls
How it was run: as §2

PHBPU [21] = experiment: Post-emergence action against PHBPU; type: in vivo, Pharbitis purpurea; conditions: post-emergence, dosage 80 g/ha
How it was run: as §2

STEME [22] = experiment: Post-emergence action against STEME; type: in vivo, Stellaria media; conditions: post-emergence, dosage 80 g/ha
How it was run: as §2

VIOTR [23] = experiment: Post-emergence action against VIOTR; type: in vivo, Viola tricolor; conditions: post-emergence, dosage 80 g/ha
How it was run: as §2

VERPE [24] = experiment: Post-emergence action against VERPE; type: in vivo, Veronica persica; conditions: dosage 80 g/ha
How it was run: as §2

AVEFA [25] = experiment: Post-emergence action against AVEFA; type: in vivo, Avena fatua; conditions: post-emergence, dosage 80 g/ha, visual assessment about 3 weeks after treatment vs untreated controls
How it was run: as §2

CYPES [26] = experiment: Post-emergence action against CYPES; type: in vivo, Cyperus esculentus; conditions: post-emergence, dosage 80 g/ha, visual assessment about 3 weeks after treatment vs untreated controls
How it was run: as §2

Row | Structure (SMILES) | Pre-emergence action against ALOMY (herbicidal activity in percent) (ALOMY [1]) | Pre-emergence action against AVEFA (herbicidal activity) (AVEFA [2]) | Pre-emergence action against CYPES (herbicidal activity) (CYPES [3]) | Pre-emergence action against ECHCG (herbicidal activity) (ECHCG [4]) | Pre-emergence action against LOLRI (herbicidal activity) (LOLRI [5]) | SETVI (Table B8, pre-emergence herbicidal activity) (SETVI [6]) | Pre-emergence action against ABUTH (herbicidal activity) (ABUTH [7]) | Pre-emergence action against AMARE (herbicidal activity) (AMARE [8]) | Pre-emergence action against MATIN (MATIN [9]) | Pre-emergence action against PHBPU (PHBPU [10]) | Pre-emergence action against POLCO (POLCO) | Pre-emergence action against STEME (STEME [11]) | Pre-emergence action against VIOTR (VIOTR [12]) | Pre-emergence action against VERPE (VERPE [13]) | Post-emergence action against ALOMY (ALOMY [14]) | Post-emergence action against ECHCG (herbicidal action in percent) (ECHCG [15]) | Post-emergence action against LOLRI (herbicidal action in percent) (LOLRI [16]) | Post-emergence action against SETVI (herbicidal action in percent) (SETVI [17]) | Post-emergence action against ABUTH (herbicidal action in percent) (ABUTH [18]) | Post-emergence action against AMARE (herbicidal action in percent) (AMARE [19]) | also measured
1 | CCn1nnnc1NC(=O)c1ccc(C(F)(F)F)c(C(=O)C2CC2C)c1Cl (stereo not shown) [2-148] | 90% | 90% | 90% | 100% | 90% | 100% | 100% | 100% | 100% | 90% | 90% | 90% | 100% | 100% | 90% | 90% | 80% | 90% | 90% | 90% | Post-emergence action against MATIN (herbicidal action in percent) (MATIN [20]): 90%; Post-emergence action against PHBPU (PHBPU [21]): 90; Post-emergence action against STEME (STEME [22]): 90; Post-emergence action against VIOTR (VIOTR [23]): 90; Post-emergence action against VERPE (VERPE [24]): 90
2 | COCC(=O)c1c(C(F)(F)F)ccc(C(=O)Nc2nnnn2C)c1Cl [1-144] | 100% | 100% | 100% | 100% | 100% | 100% | 100% | 100% | 100% | 100% | 80% | 100% | 100% | 100% | 90% | 90% | 80% | 100% | 100% | 100% | Post-emergence action against MATIN (herbicidal action in percent) (MATIN [20]): 90%; Post-emergence action against PHBPU (PHBPU [21]): 100; Post-emergence action against STEME (STEME [22]): 100; Post-emergence action against VIOTR (VIOTR [23]): 100; Post-emergence action against VERPE (VERPE [24]): 90
3 | Cn1nnnc1NC(=O)c1ccc(C(F)(F)F)c(C(=O)CCl)c1Cl [1-145] | 100% | 100% | 100% | 100% | 100% | 100% | 100% | 100% | 100% | 100% | 100% | 100% | 100% | 100% | 90% | 100% | 80% | 100% | 100% | 100% | Post-emergence action against AVEFA (herbicidal action in percent) (AVEFA [25]): 90%; Post-emergence action against CYPES (herbicidal action in percent) (CYPES [26]): 100%; Post-emergence action against PHBPU (PHBPU [21]): 100; Post-emergence action against STEME (STEME [22]): 100; Post-emergence action against VIOTR (VIOTR [23]): 100; Post-emergence action against VERPE (VERPE [24]): 100
